{"source": "patent US10959998B2", "about": "“Pharmaceutical use and pharmaceutical composition of pyrroloquinoline quinine, its derivatives and/or its salts” (priority 2015, dated 2021)", "key": {"[1]": {"system": "ectopic endometrial stromal cells", "assay": "MTT cell proliferation of ectopic endometrial stromal cells", "format": "cell-based, human", "method": "Endometrial tissues were surgically isolated from patients with chocolate cyst of ovary, washed 2 to 3 times with PBS supplemented with antibiotics in ultra-clean cabinet, and cut into tiny pieces (about 1 mm^3 in size) with aseptic scissors. The tissues were digested with 1 mg/ml collagenase type I for 30 to 90 min at 37° C., and continually digested with Dnase I (final concentration of 15 U/ml, 2% Dnase I) for another 30 min. The digested tissues were filtered thorough 60-mesh stainless steel filter cell strainer to remove the undigested cell tissues, and were further filtered with 200- or 400-mesh strainer. The filtered solution was centrifuged at 1000 rpm for 5 min. After removing the supernatants, the cells were washed once with culture medium compounded by DMEM/F12 (1:1 v/v) and 10% fetal bovine serum, re-suspended in the culture medium, and seeded in 6-well tissue culture plate or T25 tissue culture flasks with an appropriate density. After 24 hours incubation, the culture medium was changed to remove the non-adherent blood cells, endothelial cells, macrophages and other miscellaneous cells. After primary human endometrial stromal cells were grown to reach 90% confluence, the cells were digested with 0.25% trypsin for 4 to 6 min, and then subcultured with a split ratio of 1:2 to 1:3. Vimentin which expresses specifically in stromal cells was detected by immuno-fluorescence to measure the cell purity. The cells of purity >95% were used in the following experiments. Primary ectopic endometrial stromal cells of human were subcultured and the subcultured cells of the 3th to 6th passages were chosen as experimental subjects. The cells in logarithmic growth phase were […] and incubated in the cell culture plate at a density of 50%˜60% (i.e. 2×10^4 cells/well). After growing adherent on the wall for 24 hours, the cultured cells were divided into groups and each group was given different doses of PQQ. 20 μL MTT (5 mg/ml in PBS, pH=7.4) was added to each well at indicated time points. The cells were incubated in an incubator at 37° C. in a 5% CO2 atmosphere for 4 h. At the end of incubation, the culture supernatant in each cell was carefully aspirated away. 150 μL DMSO was added to each well. Then the wells were shaken with Orbital shaker for 10 min. The absorbance of each cell was detected at wavelength 490 nm. Finally, the cell proliferation curve was drawn. Primary ectopic endometrial stromal cells were cultured and the subcultured cells of the 3th to 6th passage were chosen as experimental subjects. The cells in logarithmic growth phase were […] and incubated in the cell culture plate at a of 50%˜60% (e.g. 2×10^4 cells/well). The cells grew adhering to the wall for 24 hours before being treated with drugs. The cells were divided into groups and each group was given different dose of PQQ. At indicated time point, 20 μL […] (5 mg/ml in PBS, pH=7.4) was added to every well. The cells were then incubated in an incubator at 37° C. in a 5% CO2 atmosphere for 4 h. After terminating incubation, the culture supernatant in each cell was carefully aspirated away, but formazan crystals should not be aspirated away in any case. 150 μL DMSO was added to each well respectively. All the wells were shaken with Orbital shaker for 10 min to make the crystals adequately solubilized. The absorbance of each cell was detected at wavelength 490 nm. Finally, the cell proliferation curve was drawn."}, "[2]": {"system": "superoxide anion radical (O2.-) in endometrial stromal cells", "assay": "Determination of superoxide anion (O2.-) content", "format": "cell-based, human", "details": "18 h", "method": "Superoxide anion (O2.^−) assay kit was purchased from Nanjing Jiancheng Bioengineering Insitute; Hydroxyl free radical assay kit was purchased from Shanghai Xinyu Biological Technology Co., Ltd., Hydrogen Peroxide Assay Kit was purchased from Beyotime Biotechnology Research Institute. The cells were cultured in 96-well cell culture plates for 24 h after the cells adhered to the plate. Three different concentrations PQQ (30 nm, 300 nm and 3 um) were added to the culture medium respectively. After additional 18 h incubation, the culture medium was discarded, and fresh culture medium supplemented with NBT (a final concentration of 1 mg/mL) was added to the cells. The cells were continually cultured for another 1 h at 37° C. The cells were fixed with 100% methanol, and naturally dried. 120 μL KOH (2 mol/L) and 140 μL DMSO were added to the cells. The optical density at wavelength 570 nm was measured."}, "[3]": {"system": "ectopic endometrial foci", "assay": "Endometriosis rat model, weight of transplanted foci", "format": "in vivo, SD rats"}, "[4]": {"system": "infiltration of endometrial stroma and glands into myometrium", "assay": "Adenomyosis mouse model created with tamoxifen, pathological section", "format": "in vivo, mice", "method": "Disodium salt of PQQ was used in the present experiment (PQQ-Na2, donated by MITSUBISHI gas chemical (MGC), Japan). The salt was dissolved with water and the concentration of its mother liquid is 1 mg/mL.\nIn the present Example, the mouse model of adenomyosis was created with tamoxifen. This method is easy to operate, the rate of molding can reach 100%, and the difference between the model mouses caused by the operation is small. At 2˜5 days after birth (the birth day was the first day), the mice were fed with 5 ul/(g·BW) peanut oil/lecithin/condensed milk mixture (volume ratio 2:0.2:3) supplemented with 0.2 mg/ml tamoxifen (produced by shanghai Fudan Fuhua Pharmaceutical Co, Ltd.) by drip feeding. In the negative control group, the mice were fed with peanut oil/lecithin/condensed milk mixture (volume ratio 2:0.2:3), with no tamoxifen added. All the mice were exposed to light for 12 h/day, and were reared by maternal lactation during 1-21 days of age. After 22 days of birth, the mice were separated with mother mice, and the female mice were reserved for the next experiment.\nAfter 3 months, 7 model mice were killed after anesthesia. […] The remaining model mice were divided into 5 groups with 20 mice in each group. One of the groups was chosen as model control group (fed with normal water). The drinking water for other group were supplemented with PQQ (1 mg/kg/day), NAC (10 mg/kg/day), PQQ (1 mg/kg/day) +NAC (10 mg/kg/day) (denoted by P+N (H)); PQQ (0.2 mg/kg/day) +NAC (5 mg/kg/day) (denoted by P+N (L)).\nAfter treatment with drugs for 4 weeks, the mice were killed by anesthesia. The uterus was surgically removed and the invasion of endometria into myometrium was analyzed by the pathological section."}, "[5]": {"details": "4 weeks in drinking water, PQQ (disodium salt) 1 mg/kg/day, NAC 10 mg/kg/day, P+N (H) 1+10, P+N (L) 0.2+5 mg/kg/day"}}, "note": "Marks after values point to notes of the source that are not given here.", "data": [{"smiles": "O=C(O)c1cc(C(=O)O)c2c(n1)C(=O)C(=O)c1cc(C(=O)O)[nH]c1-2", "note": "[PQQ, pyrroloquinoline quinone]", "values": [{"measurement": "cell proliferation compared with the control group", "setting": "[1]; PQQ 3 um, from 48 h after drug treatment, p<0.01", "result": "significantly inhibit cell proliferation"}, {"measurement": "cell proliferation compared with the control group", "setting": "[1]; PQQ 30 nm, p>0.05", "result": "a certain inhibitory effect, but not significant"}, {"measurement": "cell proliferation compared with the control group", "setting": "[1]; PQQ 300 nm, from 48 h after drug treatment, p<0.01", "result": "significantly inhibit cell proliferation"}, {"measurement": "relative content of superoxide anion radical (O2.-)", "setting": "[2]; PQQ 300 nM", "result": "significantly declined"}, {"measurement": "relative content of superoxide anion radical (O2.-)", "setting": "[2]; PQQ 3 uM", "result": "significantly declined"}, {"measurement": "weight of ectopic endometrial foci compared with the control group", "setting": "[3]; Example 5, rats, after 4 weeks treatment", "result": "evidently lower than that from the control group"}, {"measurement": "weight of cysts after treatment (mg) Mean ± SD", "setting": "[3]; Example 5, rats, water feeding 4 week, PQQ 1 mg/kg, NAC 10 mg/kg, Resveratro 10 mg/kg, n=9", "result": "71.2 ± 23.2", "unit": "mg"}, {"measurement": "weight of ectopic cys after treatment (mg) Mean ± SD", "setting": "[3]; Example 7, rats, 4 weeks in drinking water, PQQ (disodium salt) 1 mg/kg/day, NAC 10 mg/kg/day, P+N (H) 1+10, P+N (L) 0.2+5 mg/kg/day, n=12", "result": "69.5 ± 12.7", "unit": "mg"}, {"measurement": "weight of ectopic cyst compared with model control group", "setting": "[3]; Example 7, rats, after 4 weeks treatment, PQQ as disodium salt", "result": "evidently lower than that in the model control group"}, {"measurement": "infiltration of endometrial glands, positive animals/total animals", "setting": "[4]; [5]", "result": "9/20*#"}, {"measurement": "infiltration of endometrial stroma, positive animals/total animals", "setting": "[4]; [5]", "result": "10/20*#"}, {"measurement": "number of animals with infiltration of endometrial stroma and glands compared with model control group", "setting": "[4]; after 4 weeks treatment, PQQ as disodium salt", "result": "evidently lower than that in the model control group"}]}]}
